From ChEMBL document CHEMBL6096629, “Indolo[3,2-c]isoquinoline Hydroxamic Acid Derivatives as Novel Orally Topoisomerase-Histone Deacetylase Dual Inhibitors for NSCLC Therapy” (J Med Chem, 2025) come the findings set out here.

Bounds are passed on as bounds.

In one test the target is Histone deacetylase 1 (Homo sapiens, UniProt Q13547). Nature of the test: Inhibition of HDAC1 (unknown origin).
Test [1] deals with HCT-116. Nature of the test: cells. It counts as functional, cell-based. The note with it: Homo sapiens, HCT-116, 24 h.
Description: Antiproliferative activity against human HCT-116 cells incubated for 24 hrs by MTT assay
Test [2] concerns MDA-MB-231. The test can be described thus: cells. Conditions: Homo sapiens, MDA-MB-231, 24 h. It counts as functional, cell-based.
Test [3] deals with MCF7. The test can be described thus: cells. It counts as functional, cell-based. Conditions: Homo sapiens, MCF7, 24 h.
Description: Antiproliferative activity against human MCF7 cells incubated for 24 hrs by MTT assay
For test [4], the system named is Huh-7. The test can be described thus: Antiproliferative activity against human Huh-7 cells incubated for 24 hrs by MTT assay. It counts as functional, cell-based. Conditions: Huh-7, 24 h.
Test [5] has as its system NCI-H2228. Nature of the test: Antiproliferative activity against human NCI-H2228 cells incubated for 24 hrs by MTT assay. It counts as functional, cell-based. Conditions: NCI-H2228, 24 h.
In test [6] the test system is PC-3. Nature of the test: Antiproliferative activity against human PC-3 cells incubated for 24 hrs by MTT assay. It counts as functional, cell-based. The note with it: PC-3, 24 h.
For test [7], the system named is MDA-MB-231. The test can be described thus: cells. Conditions: Homo sapiens, MDA-MB-231, 24 h.
Description: Antiproliferative activity against human MDA-MB-231 cells incubated for 24 hrs in presence of SAHA by MTT assay
Test [8] deals with Huh-7. Nature of the test: Antiproliferative activity against human Huh-7 cells incubated for 24 hrs in presence of SAHA by MTT assay. The note with it: Huh-7, 24 h. It counts as functional, cell-based. (Formazan colour is commonly taken as a measure of viable cells.)
Test [9] concerns PC-3. The test can be described thus: Antiproliferative activity against human PC-3 cells incubated for 24 hrs in presence of SAHA by MTT assay. It counts as functional, cell-based. Conditions: PC-3, 24 h.
Test [10] relates to NCI-H2228. The test can be described thus: Antiproliferative activity against human NCI-H2228 cells incubated for 24 hrs in presence of SAHA by MTT assay. It counts as functional, cell-based. Conditions: NCI-H2228, 24 h.
In test [11] the test system is MCF7. The test can be described thus: cells. The note with it: Homo sapiens, MCF7, 24 h.
Description: Antiproliferative activity against human MCF7 cells incubated for 24 hrs in presence of SAHA by MTT assay
For test [12], the system named is HCT-116. Nature of the test: cells. The note with it: Homo sapiens, HCT-116, 24 h.
Description: Antiproliferative activity against human HCT-116 cells incubated for 24 hrs in presence of SAHA by MTT assay

Histone deacetylase 1, sequence (Q13547 whole entry): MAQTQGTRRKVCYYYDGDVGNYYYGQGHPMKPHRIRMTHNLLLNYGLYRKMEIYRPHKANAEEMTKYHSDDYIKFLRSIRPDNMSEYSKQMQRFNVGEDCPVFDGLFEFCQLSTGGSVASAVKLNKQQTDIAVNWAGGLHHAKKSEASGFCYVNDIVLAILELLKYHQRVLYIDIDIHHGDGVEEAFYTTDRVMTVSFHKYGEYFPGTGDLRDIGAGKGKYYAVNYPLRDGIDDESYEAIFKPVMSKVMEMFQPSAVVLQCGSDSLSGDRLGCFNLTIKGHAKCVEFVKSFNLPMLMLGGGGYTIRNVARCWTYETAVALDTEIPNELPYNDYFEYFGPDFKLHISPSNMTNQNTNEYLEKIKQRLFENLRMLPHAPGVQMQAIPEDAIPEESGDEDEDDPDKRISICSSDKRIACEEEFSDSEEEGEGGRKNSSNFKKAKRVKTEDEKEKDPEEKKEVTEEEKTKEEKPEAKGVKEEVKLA

In the case of `CCCNNC(=O)c1ccc(Cn2c3cc4c(cc3c3[nH]c(=O)c5ccccc5c32)OCO4)cc1`, the half-inhibitory concentration (IC50) was 1.09 µM against Histone deacetylase 1; 1.5 µM in the test with HCT-116 [1]; 4.45 µM with MDA-MB-231 [2]; 1.97 µM in the test on MCF7 [3]; 6.28 µM in the test on Huh-7 [4]; 2.17 µM with NCI-H2228 [5]. For the same molecule, the midpoint of inhibition with PC-3 [6], the IC50, lay at 1.53 µM.

As for `CCCCNNC(=O)CCCCn1c2cc3c(cc2c2[nH]c(=O)c4ccccc4c21)OCO3`, the 50% inhibitory concentration (IC50) on Histone deacetylase 1 worked out at 3.32 µM; with HCT-116 [1] it was 3.52 µM; in the test on MDA-MB-231 [2], 4.33 µM; in the test on MCF7 [3], 4.11 µM; in the test with Huh-7 [4], 6.49 µM; with NCI-H2228 [5], 2.17 µM. In the test with PC-3 [6], the IC50 stood at 3.24 µM.

Regarding `CCCNNC(=O)CCCCCn1c2cc3c(cc2c2[nH]c(=O)c4ccccc4c21)OCO3`, the IC50 against Histone deacetylase 1 is 0.5 µM; in the test with HCT-116 [1], 2.88 µM; in the test on MDA-MB-231 [2], 5.91 µM; in the test on MCF7 [3] it was greater than 8 µM; in the test on Huh-7 [4] it was greater than 8 µM; in the test on NCI-H2228 [5], 2.84 µM. Besides, in the test with PC-3 [6], the midpoint of inhibition, the IC50, lay at 4.6 µM.

Regarding `CCCNNC(=O)CCCCCCn1c2cc3c(cc2c2ncc4ccccc4c21)OCO3`, the IC50 against Histone deacetylase 1 was 0.13 µM; in the test with HCT-116 [1] it was greater than 8 µM; in the test on MDA-MB-231 [2], greater than 8 µM; in the test on MCF7 [3], greater than 8 µM; in the test with Huh-7 [4] it was greater than 8 µM; with NCI-H2228 [5] it was greater than 8 µM. The molecule also registered an IC50 in the test on PC-3 [6] greater than 8 µM.

`CCNNC(=O)CCCCn1c2cc3c(cc2c2[nH]c(=O)c4ccccc4c21)OCO3`: the 50% inhibitory concentration (IC50) on Histone deacetylase 1 is 1.65 µM; in the test on HCT-116 [1] it was 3.19 µM; with MDA-MB-231 [2] it was greater than 8 µM; in the test with MCF7 [3] it was 4.08 µM; with Huh-7 [4] it was 7.41 µM; with NCI-H2228 [5], 2.39 µM. This molecule also displayed a concentration for half-maximal inhibition (IC50) in the test with PC-3 [6] of 3.56 µM.

As for `O=C(CCCCCCCn1c2cc3c(cc2c2ncc4ccccc4c21)OCO3)NO`, the half-inhibitory concentration (IC50) against Histone deacetylase 1 is less than 0.002 µM; in the test with HCT-116 [1] it was 2.68 µM; in the test on MDA-MB-231 [2], 2.22 µM; in the test on MCF7 [3], greater than 8 µM; in the test with Huh-7 [4], 6.59 µM; in the test with NCI-H2228 [5] it was 4.6 µM. In the test on PC-3 [6], this molecule had an IC50 of 2.5 µM.

Consider `CCCNNC(=O)CCCCn1c2cc3c(cc2c2[nH]c(=O)c4ccccc4c21)OCO3`, for which the half-inhibitory concentration (IC50) on Histone deacetylase 1 amounted to 0.64 µM; in the test with HCT-116 [1], 1.31 µM; in the test on MDA-MB-231 [2], 2.62 µM; in the test on MCF7 [3] it was 1.27 µM; in the test with Huh-7 [4] it was 2.74 µM; in the test on NCI-H2228 [5], 1.17 µM. The molecule also returned a half-inhibitory concentration (IC50) with PC-3 [6] of 0.93 µM.

For `COc1cc([C@@H]2c3cc4c(cc3[C@@H](O[C@@H]3O[C@@H]5CO[C@@H](C)O[C@H]5[C@H](O)[C@H]3O)[C@H]3COC(=O)[C@H]23)OCO4)cc(OC)c1O` [ETOPOSIDE], the IC50 in the test with MDA-MB-231 [7] was 1.01 µM; in the test on Huh-7 [8], 0.81 µM; in the test on MDA-MB-231 [2], 2.87 µM; in the test with PC-3 [9], 0.65 µM; in the test with NCI-H2228 [10], 0.84 µM; with MCF7 [11] it was 0.64 µM. This molecule also gave an IC50 in the test with HCT-116 [12] of 0.95 µM.

With `CCCNNC(=O)CCCCCCCn1c2cc3c(cc2c2[nH]c(=O)c4ccccc4c21)OCO3`, the IC50 at Histone deacetylase 1 was 1.72 µM; with HCT-116 [1] it was greater than 8 µM; in the test on MDA-MB-231 [2], greater than 8 µM; in the test with MCF7 [3], greater than 8 µM; in the test with Huh-7 [4], greater than 8 µM; in the test on NCI-H2228 [5], greater than 8 µM. The IC50 in the test on PC-3 [6] is greater than 8 µM.

By IC50 is commonly meant the concentration at which inhibition is half-maximal.
